Test: pH dependence of Piroxicam solubility
Assay type: physicochemical
From the text: The solubility of weak acids and weak bases may be adjusted by pH control. Increasing the pH of a solution can decrease solubility of a weak base, whereas the solubility of a weak acid can be […] by a pH decrease. The relative levels of weak acid or weak base added to the drug can be calculated with the knowledge of the Henderson-Hasselbalch equation, and by calculation of the pKa of the drug concerned in the solvent in question. […] Piroxicam ([…]) has a “U”-shaped pH solubility curve with a minimum around pH 3.5. […] A further advantage arising out of the reduced solubility of Piroxicam is reduced formation of the hydrate which has a bright yellow color.

Structure (SMILES): CN1C(C(=O)Nc2ccccn2)=C(O)c2ccccc2S1(=O)=O [Piroxicam]
- pH of minimum of the U-shaped pH solubility curve: ~3.5
- change in solubility on pH adjustment (pH adjusted from about 6.5 to approximately 4.0 by addition of an acid such as citric acid): approximately tenfold decrease in solubility

From patent US6726928B2, “Process for preparing solid dosage forms for unpalatable pharmaceuticals” (R.P. Scherer Technologies, Inc., priority 1994, dated 2004)
